Test system: modified version of the GPR119 receptor (94% identity to human receptor)
Assay: cAMP production assay (LANCE cAMP kit, TR-FRET) in HEK-293 cells
Format: cell-based
Settings: for cAMP production in HEK-293 cells: HEK-293 cells stably expressing modified GPR119, test compounds 0.2 nM to 10 μM, one-hour incubation at ambient temperature; for Fold over baseline: increase in cAMP relative to basal levels, agonist activity if 1.5-fold or greater
Summary of the method: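 Doxycycline-induced (1 μg/mL, overnight) HEK-293 cells expressing modified GPR119 were thawed, 2000 cells/well, and exposed to compounds (0.2 nM-10 μM final, 0.5% DMSO) for 1 h at ambient temperature in HBSS/HEPES/BSA. cAMP was measured by LANCE TR-FRET against a standard curve. Agonism was defined as ≥1.5-fold over basal.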

| SMILES | cAMP production in HEK-293 cells [nmol] | Fold over baseline |
| --- | --- | --- |
| CN(CCO)C(=O)c1ccc(O[C@H]2CCN(C3CCN(c4ncc(Cl)cc4F)CC3)C2=O)c(F)c1 [Example 154, (S)-4-(1-(1-(5-chloro-3-fluoropyridin-2-yl)piperidin-4-yl)-2-oxopyrrolidin-3-yloxy)-3-fluoro-N-(2-hydroxyethyl)-N-methylbenzamide] | 14.6 | 3.1 |
| CS(=O)(=O)c1cc(F)c(N[C@H]2CCCN(C3CCN(c4ncc(I)cn4)CC3)C2=O)cc1F [Example 47, (S)-3-(2,5-difluoro-4-(methylsulfonyl)phen-ylamino)-1′-(5-iodopyrimidin-2-yl)-[1,4′-bipiperidin]-2-one] | 9.3 | 2.0 |
| CS(=O)(=O)c1cc(F)c(N[C@H]2CCN(C3CCN(c4ccc(C(F)(F)F)cn4)CC3)C2=O)cc1F [Example 104, (S)-3-(2,5-difluoro-4-(methylsulfonyl)phenyl-amino)-1-(1-(5-(trifluoro-methyl)pyridin-2-yl)piperidin-4-yl)pyrrolidin-2-one] | 13.5 | 2.8 |
| CS(=O)(=O)c1ccc(N[C@H]2CCCN(C3CCN(c4ncc(C(F)(F)F)cc4F)CC3)C2=O)c(F)c1 [Example 146, (S)-3-(2-fluoro-4-(methylsulfonyl)phenyl-amino)-1′-(3-fluoro-5-(trifluoromethyl)pyridin-2-yl)-1,4′-bipiperidin-2-one] | 34.6 | 2.6 |
| CCc1cnc(N2CCC(N3CC[C@H](Nc4c(F)cc(S(C)(=O)=O)cc4F)C3=O)CC2)nc1 [Example 21, (S)-3-(2,6-difluoro-4-(methylsulfonyl)phenylamino)-1-(1-(5-ethylpyrimidin-2-yl)piperidin-4-yl)pyrrolidin-2-one] | 6.6 | 1.9 |
| Cc1cnc(N2CCC(N3CCC[C@H](Nc4ccc(S(C)(=O)=O)cc4F)C3=O)CC2)nc1 [Example 43, (S)-3-(2-fluoro-4-(methylsulfonyl)phenylamino)-1′-(5-methylpyrimidin-2-yl)-[1,4′-bipiperidin]-2-one] | 6.9 | 1.7 |
| CS(=O)(=O)c1ccc(O[C@H]2CCN(C3CCN(c4cnc(Cl)cn4)CC3)C2=O)cn1 [Example 69, (S)-1-(1-(5-chloropyrazin-2-yl)piperidin-4-yl)-3-(6-(methylsulfonyl)pyridin-3-yloxy)pyrrolidin-2-one] | 21.3 | 3.2 |
| Cc1ccccc1-c1cnc(N2CCC(N3CCC[C@H](Nc4cc(F)c(S(C)(=O)=O)cc4F)C3=O)CC2)cn1 [Example 61, (S)-3-(2,5-difluoro-4-(methylsulfonyl)phenylamino)-1′-(5-o-tolylpyrazin-2-yl)-[1,4′-bipiperidin]-2-one] | 19.6 | 3.1 |
| CS(=O)(=O)c1ccc(N[C@H]2CCN(C3CCN(c4cnc(C#N)cn4)CC3)C2=O)c(F)c1 [Example 14, (S)-5-(4-(3-(2-fluoro-4-(methylsulfonyl)phenylamino)-2-oxopyrrolidin-1-yl)piperidin-1-yl)pyrazine-2-carbonitrile] | 32.3 | 5.5 |
| CS(=O)(=O)c1ccc(O[C@H]2CCN(C3CCN(c4ncc(C(F)(F)F)cc4Cl)CC3)C2=O)c(F)c1 [Example 136, (S)-1-(1-(3-chloro-5-(trifluoromethyl)pyridin-2-yl)piperidin-4-yl)-3-(2-fluoro-4-(methyl-sulfonyl)phenoxy)pyrrol-idin-2-one] | 36.5 | 3.0 |
| CCc1cnc(N2CCC(N3CCC[C@H](Nc4ccc(S(C)(=O)=O)cc4F)C3=O)CC2)nc1 [Example 40, (S)-1′-(5-ethylpyrimidin-2-yl)-3-(2-fluoro-4-(methylsulfonyl)phenylamino)-[1,4′-bipiperidin]-2-one] | 12.4 | 2.2 |
| Cc1cc(N[C@H]2CCN(C3CCN(c4ncc(Cl)cc4F)CC3)C2=O)cnc1S(C)(=O)=O [Example 120, (S)-1-(1-(5-chloro-3-fluoropyridin-2-yl)piperidin-4-yl)-3-(5-methyl-6-(methylsulfonyl)pyridin-3-ylamino) pyrrolidin-2-one] | 18.6 | 3.8 |
| CS(=O)(=O)c1ccc(N[C@H]2CCN(C3CCN(c4ncc(Cl)nc4Cl)CC3)C2=O)c(F)c1 [Example 147, (S)-1-(1-(3,5-dichloropyrazin-2-yl)piperidin-4-yl)-3-(2-fluoro-4-(methylsulfonyl)phenylamino)pyrrolidin-2-one] | 46.4 | 3.6 |
| CS(=O)(=O)c1cc(F)c(N[C@H]2CCN(C3CCN(c4cnc(Br)cn4)CC3)C2=O)cc1F [Example 15, (S)-1-(1-(5-bromopyrazin-2-yl)piperidin-4-yl)-3-(2,5-difluoro-4-(methylsulfonyl)phenylamino)pyrrolidin-2-one] | 24.2 | 4.2 |
| CN(C)C(=O)c1ccc(O[C@H]2CCN(C3CCN(c4ncc(Cl)cc4F)CC3)C2=O)cn1 [Example 149, (S)-5-(1-(1-(5-chloro-3-fluoropyridin-2-yl)piperidin-4-yl)-2-oxopyrrolidin-3-yloxy)-N,N-dimethylpicolinamide] | 6.8 | 1.5 |
| O=C(c1ccc(O[C@H]2CCN(C3CCN(c4ncc(C(F)(F)F)cc4Cl)CC3)C2=O)c(F)c1)N1CCCC1 [Example 151] | 35.8 | 4.7 |
| CS(=O)(=O)c1ccc(N[C@H]2CCN(C3CCN(c4ncc(CO)cc4Cl)CC3)C2=O)c(F)c1 [Example 156, (S)-1-(1-(3-chloro-5-(hydroxymethyl)pyridin-2-yl)piperidin-4-yl)-3-(2-fluoro-4-(methylsulfonyl)phenylamino)pyrrolidin-2-one] | 17.3 | 2.3 |
| CS(=O)(=O)c1ccc(N[C@H]2CCN(C3CCN(c4ncc(C(F)(F)F)cc4Cl)CC3)C2=O)cn1 [Example 119, (S)-1-(1-(3-chloro-5-(trifluoromethyl)pyridin-2-yl)piperidin-4-yl)-3-(6-(methylsulfonyl)pyridin-3-ylamino)pyrrolidin-2-one] | 16.3 | 3.3 |

From patent US8754226B2, “Piperidinyl-substituted lactams as GPR119 modulators” (Array BioPharma Inc., priority 2010, dated 2014)
